Reference: patent publication US20130296383A1, “DECAHYDRO-1,4-METHANONAPHTHALEN CARBOXAMIDES” (BAYER INTELLECTUAL PROPERTY GMBH, priority 2010, published 2013)

How the values were obtained:
Pyrenophora teres = assay: Pyrenophora test (barley) / preventive; assay type: in vivo; settings: 500 ppm of active ingredient, evaluated 7-9 days after inoculation
Experimental: Pyrenophora Test (Barley)/Preventive
(§1) To produce a suitable preparation of active compound, 1 part by weight of active compound is mixed with the stated amounts of solvent and emulsifier, and the concentrate is diluted with water to the desired concentration.
(§2) To test for preventive activity, young plants are sprayed with the preparation of active compound at the stated rate of application. One day after this treatment, the plants are inoculated with an aqueous spore suspension of Pyrenophora teres. The plants remain for 48 hours in an incubation cabinet at 22° C. and a relative atmospheric humidity of 100%. Then the plants are placed in a greenhouse at a temperature of approximately 20° C. and a relative atmospheric humidity of approximately 80%.
(§3) The test is evaluated 7-9 days after the inoculation. 0% means an efficacy which corresponds to that of the untreated control while an efficacy of 100% means that no disease is observed.

Venturia inaequalis = assay: Venturia test (apples) / preventive; assay type: in vivo; settings: 100 ppm of active ingredient, evaluated 10 days after inoculation
Experimental: Venturia Test (Apples)/Preventive
as §1
To test for preventive activity, young plants are sprayed with the preparation of active compound at the stated rate of application. After the spray coating has dried on, the plants are inoculated with an aqueous conidia suspension of the causal agent of apple scab (Venturia inaequalis) and then remain for 1 day in an incubation cabinet at approximately 20° C. and a relative atmospheric humidity of 100%.
The plants are then placed in a greenhouse at approximately 21° C. and a relative atmospheric humidity of approximately 90%.
The test is evaluated 10 days after the inoculation. 0% means an efficacy which corresponds to that of the untreated control, while an efficacy of 100% means that no disease is observed.

[1] = system: Blumeria graminis f.sp. hordei; assay: Blumeria test (barley) / preventive; assay type: in vivo; settings: 500 ppm of active ingredient, evaluated 7 days after inoculation
Experimental: Blumeria Test (Barley)/Preventive
(§4) To produce a suitable preparation of active compound, 1 part by weight of active compound or active compound combination is mixed with the stated amounts of solvent and emulsifier, and the concentrate is diluted with water to the desired concentration.
(§5) To test for preventive activity, young plants are sprayed with the preparation of active compound or active compound combination at the stated rate of application.
After the spray coating has been dried, the plants are dusted with spores of Blumeria graminis f.sp. hordei.
The plants are placed in the greenhouse at a temperature of approximately 18° C. and a relative atmospheric humidity of approximately 80% to promote the development of mildew pustules.
(§6) The test is evaluated 7 days after the inoculation. 0% means an efficacy which corresponds to that of the untreated control, while an efficacy of 100% means that no disease is observed.

Alternaria solani = assay: Alternaria test (tomato) / preventive; assay type: in vivo; settings: 500 ppm of active ingredient, evaluated 7 days after inoculation
Experimental: Alternaria Test (Tomato)/Preventive
as §1
To test for preventive activity, young plants are sprayed with the preparation of active compound at the stated rate of application. One day after this treatment, the plants are inoculated with an aqueous spore suspension of Alternaria solani. The plants remain for one day in an incubation cabinet at approximately 22° C. and a relative atmospheric humidity of 100%. Then the plants are placed in an incubation cabinet at approximately 20° C. and a relative atmospheric humidity of 96%.
The test is evaluated 7 days after the inoculation. 0% means an efficacy which corresponds to that of the untreated control while an efficacy of 100% means that no disease is observed.

[2] = log P by HPLC on reversed phase columns (EEC directive 79/831 Annex V.A8), method [b]; assay type: physicochemical
Experimental: Calibration was done with not branched alkan2-ones (with 3 to 16 carbon atoms) with known log P-values (measurement of log P values using retention times with linear interpolation between successive alkanones). lambda-maX-values were determined using UV-spectra from 200 nm to 400 nm and the peak values of the chromatographic signals.

Sphaerotheca fuliginea = assay: Sphaerotheca test (cucumber) / preventive; assay type: in vivo; settings: 500 ppm of active ingredient, evaluated 7 days after inoculation
Experimental: Sphaerotheca Test (Cucumber)/Preventive
as §1
To test for preventive activity, young plants are sprayed with the preparation of active compound at the stated rate of application. One day after this treatment, the plants are inoculated with an aqueous spore suspension of Sphaerotheca fuliginea. Then the plants are placed in a greenhouse at approximately 23° C. and a relative atmospheric humidity of approximately 70%.
as §6

Septoria tritici = Septoria tritici test (wheat) / preventive; assay type: in vivo; settings: 500 ppm of active ingredient, evaluated 21 days after inoculation
Experimental: Septoria Tritici-Test (Wheat)/Preventive
as §4, §5
After the spray coating has been dried, the plants are sprayed with a spore suspension of Septoria tritici. The plants remain for 48 hours in an incubation cabinet at approximately 20° C. and a relative atmospheric humidity of approximately 100% and afterwards for 60 hours at approximately 15° C. in a translucent incubation cabinet at a relative atmospheric humidity of approximately 100%.
The plants are placed in the greenhouse at a temperature of approximately 15° C. and a relative atmospheric humidity of approximately 80%.
The test is evaluated 21 days after the inoculation. 0% means an efficacy which corresponds to that of the untreated control, while an efficacy of 100% means that no disease is observed.

Puccinia recondita = assay: Puccinia test (wheat) / preventive; assay type: in vivo; settings: 500 ppm of active ingredient, evaluated 7-9 days after inoculation
Experimental: Puccinia Test (Wheat)/Preventive
as §1
as §2, with “Puccinia recondita.” for “Pyrenophora teres.”
as §3

LogP[b] ([2]; HPLC, pH 2.7, 0.1% formic acid in water / acetonitrile gradient): LogP^[b] = 4.87
chromatographic logP ([2]; reversed phase HPLC columns, pH 2.7, acid): 4.87
Structure (SMILES): CC(C)C1C2CCC1C1C(NC(=O)c3c(C(F)F)nn(C)c3F)CCCC21 (stereo not drawn) [Example 1, 3-(difluoromethyl)-5-fluoro-N-(9-isopropyldecahydro-1,4-methanonaphthalen-5-yl)-1-methyl-1H-pyrazole-4-carboxamide]
Eff. % (Pyrenophora teres): 100%
Eff. % (Venturia inaequalis): 100%
Eff. % [1]: 100%
Eff. % (Alternaria solani): 95%
Eff. % (Sphaerotheca fuliginea): 100%
Eff. % (Septoria tritici): 90%
Eff. % (Puccinia recondita): 95%
